# From PubChem BioAssay AID256 (DTP/NCI, 2004)
# Inconclusive results and toxic doses are left out.
# Test system: CD2F1 mice, L1210 leukemia ip, survival T/C
# Assay: NCI In Vivo Anticancer Drug Screen. Data for tumor model L1210 Leukemia (intraperitoneal) in CD2F1 (CDF1) mice
# Conditions: higher = longer survival
# In short: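 Ratio T/C, where T is the treated-group value and C the vehicle-dosed control value, from mice implanted with a transplantable tumor.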
# [1] = endpoint: mean survival time, dose: 100.0 mg/kg/injection, schedule: Q04DX003 (ip), vehicle: saline with Tween-80
# [2] = endpoint: mean survival time, dose: 200.0 mg/kg/injection, schedule: Q04DX003 (ip), vehicle: saline with Tween-80
# [3] = endpoint: mean survival time, dose: 400.0 mg/kg/injection, schedule: Q04DX003 (ip), vehicle: saline with Tween-80
# [4] = endpoint: mean survival time, dose: 100.0 mg/kg/injection, schedule: Q01DX009 (ip), vehicle: saline with Tween-80
# [5] = endpoint: mean survival time, dose: 200.0 mg/kg/injection, schedule: Q01DX009 (ip), vehicle: saline with Tween-80
# [6] = endpoint: mean survival time, dose: 400.0 mg/kg/injection, schedule: Q01DX009 (ip), vehicle: saline with Tween-80
# [7] = endpoint: mean survival time, dose: 100.0 mg/kg/injection, schedule: Q04DX002 (ip), vehicle: saline with Tween-80
# [8] = endpoint: mean survival time, dose: 200.0 mg/kg/injection, schedule: Q04DX002 (ip), vehicle: saline with Tween-80
# [9] = endpoint: mean survival time, dose: 50.0 mg/kg/injection, schedule: Q01DX009 (ip), vehicle: saline with Tween-80
# [10] = endpoint: mean survival time, dose: 100.0 mg/kg/injection, schedule: Q04DX003 (ip), vehicle: saline
# [11] = endpoint: mean survival time, dose: 200.0 mg/kg/injection, schedule: Q04DX003 (ip), vehicle: saline
structure (smiles),measurement,setting,value
O=c1[nH]c(=O)n(C2CC(O)C(CO)O2)cc1C(F)(F)F (stereo not given),T/C,"endpoint: mean survival time, dose: 16.0 mg/kg/injection, schedule: Q01DX009 (ip), vehicle: water",152 % of control
same,T/C,"endpoint: mean survival time, dose: 16.0 mg/kg/injection, schedule: Q03HX016 (ip), vehicle: water",123 % of control
same,T/C,"endpoint: mean survival time, dose: 16.0 mg/kg/injection, schedule: Q03HX024 (ip), vehicle: water",171 % of control
same,T/C,"endpoint: mean survival time, dose: 64.0 mg/kg/injection, schedule: Q01DX009 (ip), vehicle: water",152 % of control
same,T/C,"endpoint: mean survival time, dose: 64.0 mg/kg/injection, schedule: Q04DX003 (ip), vehicle: water",118 % of control
same,T/C,"endpoint: mean survival time, dose: 128.0 mg/kg/injection, schedule: Q03HX016 (ip), vehicle: water",157 % of control
same,T/C,"endpoint: mean survival time, dose: 128.0 mg/kg/injection, schedule: Q03HX024 (ip), vehicle: water",109 % of control
same,T/C,"endpoint: mean survival time, dose: 128.0 mg/kg/injection, schedule: Q04DX003 (ip), vehicle: water",112 % of control
same,T/C,"endpoint: mean survival time, dose: 128.0 mg/kg/injection, schedule: Q08DX002 (ip), vehicle: water",100 % of control
same,T/C,"endpoint: mean survival time, dose: 256.0 mg/kg/injection, schedule: Q01DX001 (ip), vehicle: water",108 % of control
same,T/C,"endpoint: mean survival time, dose: 256.0 mg/kg/injection, schedule: Q01DX009 (ip), vehicle: water",112 % of control
same,T/C,"endpoint: mean survival time, dose: 256.0 mg/kg/injection, schedule: Q03HX008 (ip), vehicle: water",152 % of control
same,T/C,"endpoint: mean survival time, dose: 256.0 mg/kg/injection, schedule: Q03HX016 (ip), vehicle: water",163 % of control
same,T/C,"endpoint: mean survival time, dose: 256.0 mg/kg/injection, schedule: Q04DX003 (ip), vehicle: water",118 % of control
same,T/C,"endpoint: mean survival time, dose: 256.0 mg/kg/injection, schedule: Q08DX002 (ip), vehicle: water",109 % of control
same,T/C,"endpoint: mean survival time, dose: 512.0 mg/kg/injection, schedule: Q01DX001 (ip), vehicle: water",114 % of control
same,T/C,"endpoint: mean survival time, dose: 512.0 mg/kg/injection, schedule: Q03HX008 (ip), vehicle: water",153 % of control
same,T/C,"endpoint: mean survival time, dose: 512.0 mg/kg/injection, schedule: Q08DX002 (ip), vehicle: water",112 % of control
same,T/C,"endpoint: mean survival time, dose: 1024.0 mg/kg/injection, schedule: Q08DX002 (ip), vehicle: water",114 % of control
same,T/C,"endpoint: mean survival time, dose: 2048.0 mg/kg/injection, schedule: Q01DX001 (ip), vehicle: water",121 % of control
same,T/C,"endpoint: mean survival time, dose: 2048.0 mg/kg/injection, schedule: Q08DX002 (ip), vehicle: water",124 % of control
Nc1nc2c(nc(Br)n2C2OC(CO)C(O)C2O)c(=O)[nH]1 (stereo not given),T/C,[1],98 % of control
same,T/C,[2],102 % of control
same,T/C,[3],94 % of control
C/C=C1/CN2[C@H]3C[C@@]45c6ccccc6N[C@@H]4[C@@H]2C[C@H]1[C@@]3(C(=O)OC)[C@H]5O,T/C,[4],91 % of control
same,T/C,[1],95 % of control
same,T/C,[5],95 % of control
same,T/C,[2],100 % of control
same,T/C,[6],91 % of control
same,T/C,[3],103 % of control
CCCCSC(=O)Nc1ccccc1,T/C,[7],95 % of control
same,T/C,[8],92 % of control
same,T/C,"endpoint: mean survival time, dose: 400.0 mg/kg/injection, schedule: Q04DX002 (ip), vehicle: saline with Tween-80",92 % of control
O=C1NC(=O)c2ccccc21,T/C,"endpoint: mean survival time, dose: 100.0 mg/kg/injection, schedule: Q01DX009 (ip), vehicle: Klucel (hydroxypropylcellulose) (HPC)",102 % of control
same,T/C,"endpoint: mean survival time, dose: 200.0 mg/kg/injection, schedule: Q01DX009 (ip), vehicle: Klucel (hydroxypropylcellulose) (HPC)",106 % of control
same,T/C,"endpoint: mean survival time, dose: 400.0 mg/kg/injection, schedule: Q01DX009 (ip), vehicle: Klucel (hydroxypropylcellulose) (HPC)",101 % of control
COc1cc(OC)c(NC(=O)N2CCN(C)CC2)cc1Cl,T/C,[9],88 % of control
same,T/C,[4],94 % of control
Cc1c[nH]c(=S)[nH]c1=O.[Pd],T/C,"endpoint: mean survival time, dose: 3.12 mg/kg/injection, schedule: Q04DX003 (ip), vehicle: saline",94 % of control
same,T/C,"endpoint: mean survival time, dose: 6.25 mg/kg/injection, schedule: Q04DX003 (ip), vehicle: saline",102 % of control
same,T/C,"endpoint: mean survival time, dose: 12.5 mg/kg/injection, schedule: Q04DX003 (ip), vehicle: saline",97 % of control
same,T/C,"endpoint: mean survival time, dose: 25.0 mg/kg/injection, schedule: Q04DX003 (ip), vehicle: saline",102 % of control
same,T/C,"endpoint: mean survival time, dose: 50.0 mg/kg/injection, schedule: Q04DX003 (ip), vehicle: saline",100 % of control
same,T/C,[10],100 % of control
same,T/C,[11],96 % of control
NC(N)=Nc1nc2ccccc2[nH]1,T/C,"endpoint: mean survival time, dose: 7.0 mg/kg/injection, schedule: Q01DX009 (ip), vehicle: saline",104 % of control
same,T/C,"endpoint: mean survival time, dose: 14.0 mg/kg/injection, schedule: Q01DX009 (ip), vehicle: saline",104 % of control
same,T/C,"endpoint: mean survival time, dose: 28.0 mg/kg/injection, schedule: Q01DX009 (ip), vehicle: saline",98 % of control
CC1NCCCNCCCNC(C)c2cccc1n2 (stereo not given),T/C,"endpoint: mean survival time, dose: 50.0 mg/kg/injection, schedule: Q04DX002 (ip), vehicle: saline",104 % of control
O=C1N(Cl)C2C(N1Cl)N(Cl)C(=O)N2Cl (stereo not given),T/C,"endpoint: mean survival time, dose: 25.0 mg/kg/injection, schedule: Q04DX003 (ip), vehicle: saline with Tween-80",98 % of control
same,T/C,"endpoint: mean survival time, dose: 50.0 mg/kg/injection, schedule: Q04DX003 (ip), vehicle: saline with Tween-80",104 % of control
same,T/C,[1],89 % of control
O=[N+]([O-])c1cc(S(=O)(=O)c2ccc(N3CCCC3)c([N+](=O)[O-])c2)ccc1N1CCCC1,T/C,[4],102 % of control
same,T/C,[5],95 % of control
same,T/C,[6],104 % of control
NNC(=O)Nc1cccnc1,T/C,"endpoint: mean survival time, dose: 18.75 mg/kg/injection, schedule: Q01DX009 (ip), vehicle: saline",106 % of control
same,T/C,"endpoint: mean survival time, dose: 37.5 mg/kg/injection, schedule: Q01DX009 (ip), vehicle: saline",98 % of control
same,T/C,"endpoint: mean survival time, dose: 75.0 mg/kg/injection, schedule: Q01DX009 (ip), vehicle: saline",101 % of control
CN(C)CCC(=O)c1cccc(O)c1,T/C,[7],104 % of control
same,T/C,[8],101 % of control
CCC/C=C(\C)C(C#N)CC (stereo not given),T/C,"endpoint: mean survival time, dose: 75.0 mg/kg/injection, schedule: Q01DX001 (ip), vehicle: saline",100 % of control
same,T/C,"endpoint: mean survival time, dose: 150.0 mg/kg/injection, schedule: Q01DX001 (ip), vehicle: saline",97 % of control
same,T/C,"endpoint: mean survival time, dose: 300.0 mg/kg/injection, schedule: Q01DX001 (ip), vehicle: saline",101 % of control
CC1=C(C)C(C(=O)O)C1C(=O)O (stereo not given),T/C,"endpoint: mean survival time, dose: 100.0 mg/kg/injection, schedule: Q01DX001 (ip), vehicle: saline with Tween-80",88 % of control
same,T/C,"endpoint: mean survival time, dose: 200.0 mg/kg/injection, schedule: Q01DX001 (ip), vehicle: saline with Tween-80",97 % of control
CCC1=CC(C)(C)CC(C)=C1 (tested in a mixture with another compound),T/C,[9],110 % of control
same,T/C,[4],100 % of control
same,T/C,[1],96 % of control
same,T/C,[2],96 % of control
same,T/C,[3],93 % of control
Cc1ncc(COP(=O)(O)O)c(C=NC(CCCCN)C(=O)O)c1O.O.[Cu] (stereo not given),T/C,"endpoint: mean survival time, dose: 12.5 mg/kg/injection, schedule: Q01DX001 (ip), vehicle: saline with Tween-80",98 % of control
same,T/C,"endpoint: mean survival time, dose: 25.0 mg/kg/injection, schedule: Q01DX001 (ip), vehicle: saline with Tween-80",92 % of control
same,T/C,"endpoint: mean survival time, dose: 50.0 mg/kg/injection, schedule: Q01DX001 (ip), vehicle: saline with Tween-80",98 % of control
CN(C)CCP(=O)(O)O,T/C,[10],101 % of control
same,T/C,[11],98 % of control
same,T/C,"endpoint: mean survival time, dose: 400.0 mg/kg/injection, schedule: Q04DX003 (ip), vehicle: saline",98 % of control
NC(=S)N/N=C/c1cc(=O)c2cc(Cl)ccc2o1,T/C,"endpoint: median survival time, dose: 75.0 mg/kg/injection, schedule: Q01DX005 (ip), vehicle: DMSO",95 % of control
same,T/C,"endpoint: median survival time, dose: 150.0 mg/kg/injection, schedule: Q01DX005 (ip), vehicle: DMSO",98 % of control
same,T/C,"endpoint: median survival time, dose: 300.0 mg/kg/injection, schedule: Q01DX005 (ip), vehicle: DMSO",97 % of control
same,T/C,"endpoint: median survival time, dose: 600.0 mg/kg/injection, schedule: Q01DX005 (ip), vehicle: DMSO",96 % of control
same,T/C,"endpoint: median survival time, dose: 1200.0 mg/kg/injection, schedule: Q01DX005 (ip), vehicle: DMSO",104 % of control
O=S(=O)(O)O.[Pt].c1ccc([PH+](c2ccccc2)c2ccccc2)cc1.c1ccc([PH+](c2ccccc2)c2ccccc2)cc1.c1ccc([PH+](c2ccccc2)c2ccccc2)cc1,T/C,"endpoint: mean survival time, dose: 3.12 mg/kg/injection, schedule: Q04DX003 (ip), vehicle: distilled water + Tween-80",102 % of control
same,T/C,"endpoint: mean survival time, dose: 6.25 mg/kg/injection, schedule: Q04DX003 (ip), vehicle: distilled water + Tween-80",102 % of control
same,T/C,"endpoint: mean survival time, dose: 12.5 mg/kg/injection, schedule: Q04DX003 (ip), vehicle: distilled water + Tween-80",105 % of control
same,T/C,"endpoint: mean survival time, dose: 25.0 mg/kg/injection, schedule: Q04DX003 (ip), vehicle: distilled water + Tween-80",102 % of control
